From the supplement of paper PMC5908809

Tests used:
KAI3 (IL-2 2.5 ng/mL) [1] = assay: drug sensitivity score (DSS) (DSS units); higher = more sensitive; extreme values may be limits of the assay; details: 72 h
[2] = system: normal primary NK cells, pool 1 (3 donors), resting (IL-2 0 ng/mL); assay: as above; details: 72 h
KHYG-1 (IL-2 2.5 ng/mL) [3] = assay: as above; details: 72 h
YT (IL-2 2.5 ng/mL) [4] = assay: as above; details: 72 h
DERL-7 (IL-2 2.5 ng/mL) [5] = assay: as above; details: 72 h
NK-92 (IL-2 2.5 ng/mL) [6] = assay: as above; details: 72 h
[7] = system: normal primary NK cells, pool 3 (3 donors) (IL-2 2.5 ng/mL); assay: as above; details: 72 h
[8] = system: normal primary NK cells, pool 2 (3 donors) (IL-2 2.5 ng/mL); assay: as above; details: 72 h
[9] = system: normal primary NK cells, pool 1 (3 donors) (IL-2 2.5 ng/mL); assay: as above; details: 72 h
NK-YS (IL-2 2.5 ng/mL) [10] = assay: as above; details: 72 h
NKL (IL-2 2.5 ng/mL) [11] = assay: as above; details: 72 h
SNK-6 (IL-2 2.5 ng/mL) [12] = assay: as above; details: 72 h
IMC-1 (IL-2 20 ng/mL) [13] = assay: as above; details: 72 h
KAI3 (IL-2 2.5 ng/mL) [14] = assay: percent inhibition of viability; higher = more inhibition; details: 72 h
[15] = system: normal primary NK cells, pool 1 (3 donors), resting (IL-2 0 ng/mL); assay: as above; details: 72 h
KHYG-1 (IL-2 2.5 ng/mL) [16] = assay: as above; details: 72 h
YT (IL-2 2.5 ng/mL) [17] = assay: as above; details: 72 h
DERL-7 (IL-2 2.5 ng/mL) [18] = assay: as above; details: 72 h
NK-92 (IL-2 2.5 ng/mL) [19] = assay: as above; details: 72 h
[20] = system: normal primary NK cells, pool 3 (3 donors) (IL-2 2.5 ng/mL); assay: as above; details: 72 h
[21] = system: normal primary NK cells, pool 2 (3 donors) (IL-2 2.5 ng/mL); assay: as above; details: 72 h
[22] = system: normal primary NK cells, pool 1 (3 donors) (IL-2 2.5 ng/mL); assay: as above; details: 72 h
NK-YS (IL-2 2.5 ng/mL) [23] = assay: as above; details: 72 h
NKL (IL-2 2.5 ng/mL) [24] = assay: as above; details: 72 h
SNK-6 (IL-2 2.5 ng/mL) [25] = assay: as above; details: 72 h
IMC-1 (IL-2 20 ng/mL) [26] = assay: as above; details: 72 h
[27] = system: normal NK cells expanded with K562-aAPC; assay: as above; details: 72 h, IL-2 2.5 ng/mL
Protocol: (§1)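 Drug sensitivity and resistance testing on K562-aAPC-expanded normal NK cells: 5 concentrations (10-fold steps over a 10,000-fold range), 72 h at 37 °C, viability by CellTiter-Glo normalised to DMSO and benzethonium chloride controls; DSS from the fitted curve.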

[28] = system: normal NK cells expanded with K562-aAPC; assay: drug sensitivity score (DSS) (DSS units); higher = more sensitive; extreme values may be limits of the assay; details: 72 h; IL-2 2.5 ng/mL
Protocol: as §1

Work on `O=C1CCC(N2C(=O)c3ccccc3C2=O)C(=O)N1` (centres undefined) [Thalidomide] (max concentration tested 10000 nM) yielded a drug sensitivity score (KAI3 (IL-2 2.5 ng/mL) [1]) of 0.11, a drug sensitivity score [2] of 0 and a drug sensitivity score (KHYG-1 (IL-2 2.5 ng/mL) [3]) of 0.01. It also gave a drug sensitivity score (YT (IL-2 2.5 ng/mL) [4]) of 1.05, a drug sensitivity score (DERL-7 (IL-2 2.5 ng/mL) [5]) of 0 and a drug sensitivity score (NK-92 (IL-2 2.5 ng/mL) [6]) of 0.43. The drug sensitivity score [7] was 0, the drug sensitivity score [8] was 0 and the drug sensitivity score [9] was 0. The drug sensitivity score (NK-YS (IL-2 2.5 ng/mL) [10]) was 0.86, the drug sensitivity score (NKL (IL-2 2.5 ng/mL) [11]) was 0.91 and the drug sensitivity score (SNK-6 (IL-2 2.5 ng/mL) [12]) was 0. For the same molecule, the drug sensitivity score (IMC-1 (IL-2 20 ng/mL) [13]) was 0.03, the “percent inhibition of viability” value (KAI3 (IL-2 2.5 ng/mL) [14]; 1 nM) was -9.63% and the “percent inhibition of viability” value (KAI3 (IL-2 2.5 ng/mL) [14]; 10 nM) was -11.1%. For the same molecule, the “percent inhibition of viability” value (KAI3 (IL-2 2.5 ng/mL) [14]; 100 nM) was -3.59%, the “percent inhibition of viability” value (KAI3 (IL-2 2.5 ng/mL) [14]; 1000 nM) was -3.95% and the “percent inhibition of viability” value (KAI3 (IL-2 2.5 ng/mL) [14]; 10000 nM) was 14.6%. For the same molecule, the “percent inhibition of viability” value ([15]; 1 nM) was 6%, the “percent inhibition of viability” value ([15]; 10 nM) was -5.13% and the “percent inhibition of viability” value ([15]; 100 nM) was 20%. For the same molecule, the “percent inhibition of viability” value ([15]; 1000 nM) was -1.84%, the “percent inhibition of viability” value ([15]; 10000 nM) was -5.2% and the “percent inhibition of viability” value (KHYG-1 (IL-2 2.5 ng/mL) [16]; 1 nM) was -4.12%. For the same molecule, the “percent inhibition of viability” value (KHYG-1 (IL-2 2.5 ng/mL) [16]; 10 nM) was -6.62%, the “percent inhibition of viability” value (KHYG-1 (IL-2 2.5 ng/mL) [16]; 100 nM) was 0.67% and the “percent inhibition of viability” value (KHYG-1 (IL-2 2.5 ng/mL) [16]; 1000 nM) was 6.18%. The “percent inhibition of viability” value (KHYG-1 (IL-2 2.5 ng/mL) [16]; 10000 nM) was 10.3%, the “percent inhibition of viability” value (YT (IL-2 2.5 ng/mL) [17]; 1 nM) was -9.26% and the “percent inhibition of viability” value (YT (IL-2 2.5 ng/mL) [17]; 10 nM) was -7.23%. For the same molecule, the “percent inhibition of viability” value (YT (IL-2 2.5 ng/mL) [17]; 100 nM) was -5.25%, the “percent inhibition of viability” value (YT (IL-2 2.5 ng/mL) [17]; 1000 nM) was -0.15% and the “percent inhibition of viability” value (YT (IL-2 2.5 ng/mL) [17]; 10000 nM) was 26.5%. The “percent inhibition of viability” value (DERL-7 (IL-2 2.5 ng/mL) [18]; 1 nM) was -4.35%, the “percent inhibition of viability” value (DERL-7 (IL-2 2.5 ng/mL) [18]; 10 nM) was 1.66% and the “percent inhibition of viability” value (DERL-7 (IL-2 2.5 ng/mL) [18]; 100 nM) was 0.7%. The “percent inhibition of viability” value (DERL-7 (IL-2 2.5 ng/mL) [18]; 1000 nM) was -4.56%, the “percent inhibition of viability” value (DERL-7 (IL-2 2.5 ng/mL) [18]; 10000 nM) was -10.4% and the “percent inhibition of viability” value (NK-92 (IL-2 2.5 ng/mL) [19]; 1 nM) was -15.9%. For the same molecule, the “percent inhibition of viability” value (NK-92 (IL-2 2.5 ng/mL) [19]; 10 nM) was -8.74%, the “percent inhibition of viability” value (NK-92 (IL-2 2.5 ng/mL) [19]; 100 nM) was -9.71% and the “percent inhibition of viability” value (NK-92 (IL-2 2.5 ng/mL) [19]; 1000 nM) was 7.78%. The “percent inhibition of viability” value (NK-92 (IL-2 2.5 ng/mL) [19]; 10000 nM) was 12.7%, the “percent inhibition of viability” value ([20]; 1 nM) was -10.6% and the “percent inhibition of viability” value ([20]; 10 nM) was -12.8%. The “percent inhibition of viability” value ([20]; 100 nM) was -2.32%, the “percent inhibition of viability” value ([20]; 1000 nM) was 1.72% and the “percent inhibition of viability” value ([20]; 10000 nM) was 4.5%. For the same molecule, the “percent inhibition of viability” value ([21]; 1 nM) was -7.68%, the “percent inhibition of viability” value ([21]; 10 nM) was -2.29% and the “percent inhibition of viability” value ([21]; 100 nM) was 0.16%. The “percent inhibition of viability” value ([21]; 1000 nM) was 8.57%, the “percent inhibition of viability” value ([21]; 10000 nM) was 7.78% and the “percent inhibition of viability” value ([22]; 1 nM) was 0.86%. For the same molecule, the “percent inhibition of viability” value ([22]; 10 nM) was -2.62%, the “percent inhibition of viability” value ([22]; 100 nM) was 18.8% and the “percent inhibition of viability” value ([22]; 1000 nM) was -1.53%. The “percent inhibition of viability” value ([22]; 10000 nM) was 5.13%, the “percent inhibition of viability” value (NK-YS (IL-2 2.5 ng/mL) [23]; 1 nM) was -5.98% and the “percent inhibition of viability” value (NK-YS (IL-2 2.5 ng/mL) [23]; 10 nM) was -8.88%. The “percent inhibition of viability” value (NK-YS (IL-2 2.5 ng/mL) [23]; 100 nM) was -3.38%, the “percent inhibition of viability” value (NK-YS (IL-2 2.5 ng/mL) [23]; 1000 nM) was 8.1% and the “percent inhibition of viability” value (NK-YS (IL-2 2.5 ng/mL) [23]; 10000 nM) was 15.2%. For the same molecule, the “percent inhibition of viability” value (NKL (IL-2 2.5 ng/mL) [24]; 1 nM) was -18.5%, the “percent inhibition of viability” value (NKL (IL-2 2.5 ng/mL) [24]; 10 nM) was -7.52% and the “percent inhibition of viability” value (NKL (IL-2 2.5 ng/mL) [24]; 100 nM) was -3.52%. The “percent inhibition of viability” value (NKL (IL-2 2.5 ng/mL) [24]; 1000 nM) was 13.7%, the “percent inhibition of viability” value (NKL (IL-2 2.5 ng/mL) [24]; 10000 nM) was 11.1% and the “percent inhibition of viability” value (SNK-6 (IL-2 2.5 ng/mL) [25]; 1 nM) was -14.3%. The “percent inhibition of viability” value (SNK-6 (IL-2 2.5 ng/mL) [25]; 10 nM) was 8.65%, the “percent inhibition of viability” value (SNK-6 (IL-2 2.5 ng/mL) [25]; 100 nM) was -18.4% and the “percent inhibition of viability” value (SNK-6 (IL-2 2.5 ng/mL) [25]; 1000 nM) was -31.5%. For the same molecule, the “percent inhibition of viability” value (SNK-6 (IL-2 2.5 ng/mL) [25]; 10000 nM) was -27.8%, the “percent inhibition of viability” value (IMC-1 (IL-2 20 ng/mL) [26]; 1 nM) was -2.34% and the “percent inhibition of viability” value (IMC-1 (IL-2 20 ng/mL) [26]; 10 nM) was -2.83%. For the same molecule, the “percent inhibition of viability” value (IMC-1 (IL-2 20 ng/mL) [26]; 100 nM) was 3.91%, the “percent inhibition of viability” value (IMC-1 (IL-2 20 ng/mL) [26]; 1000 nM) was 5.3% and the “percent inhibition of viability” value (IMC-1 (IL-2 20 ng/mL) [26]; 10000 nM) was 12%. For the same molecule, the “percent inhibition of viability” value ([27]; 1 nM) was -14.8%, the “percent inhibition of viability” value ([27]; 10 nM) was -5.18% and the “percent inhibition of viability” value ([27]; 100 nM) was -6.96%. The “percent inhibition of viability” value ([27]; 1000 nM) was 6.59%, the “percent inhibition of viability” value ([27]; 10000 nM) was 12.7% and the drug sensitivity score [28] was 0.4.
